# Tests used:
# Fast Na [1] = experiment: Ion channel profiling in isolated atrial cardiomyocytes; format: cell-based; conditions: Rabbit/atria isolated atrial cardiomyocytes
# L-Ca = target: T1, L-Ca (Oryctolagus cuniculus, UniProt P15381); experiment: as above; format: cell-based; conditions: Rabbit/atria isolated atrial cardiomyocytes
# T1 construct: in isolated atrial cardiomyocytes; endogenous in cells; host or cells: isolated rabbit atrial cardiomyocytes
# Ito [2] = experiment: as above; format: cell-based; conditions: Rabbit/atria isolated atrial cardiomyocytes
# IKr [3] = target: T2, IKr (Oryctolagus cuniculus, UniProt Q8WNY2); experiment: as above; format: cell-based; conditions: Rabbit/atria isolated atrial cardiomyocytes
# T2 construct: in isolated atrial cardiomyocytes; endogenous in cells; host or cells: isolated rabbit atrial cardiomyocytes
# IKach = experiment: as above; format: cell-based; conditions: Rabbit/atria isolated atrial cardiomyocytes
# Fast Na [4] = target: T3, Fast Na (Homo sapiens, UniProt Q14524); experiment: as above; format: cell-based; conditions: Human/atria isolated atrial cardiomyocytes
# T3 construct: in isolated atrial cardiomyocytes; endogenous in cells; host or cells: isolated human atrial cardiomyocytes
# Ito [5] = target: T4, Ito (Homo sapiens, UniProt Q9UK17); experiment: as above; format: cell-based; conditions: Human/atria isolated atrial cardiomyocytes
# T4 construct: in isolated atrial cardiomyocytes; endogenous in cells; host or cells: isolated human atrial cardiomyocytes
# IKr [6] = target: T5, IKr (Homo sapiens, UniProt Q12809); experiment: as above; format: cell-based; conditions: Human/atria isolated atrial cardiomyocytes
# T5 construct: in isolated atrial cardiomyocytes; endogenous in cells; host or cells: isolated human atrial cardiomyocytes
# Slow Na = target: T6, Slow Na (Homo sapiens, UniProt Q14524); experiment: as above; format: cell-based; conditions: Human/atria isolated atrial cardiomyocytes
# T6 construct: in isolated atrial cardiomyocytes; endogenous in cells; host or cells: isolated human atrial cardiomyocytes
# IKur = target: T7, IKur (Homo sapiens, UniProt P22460); experiment: as above; format: cell-based; conditions: Human/atria isolated atrial cardiomyocytes
# T7 construct: in isolated atrial cardiomyocytes; endogenous in cells; host or cells: isolated human atrial cardiomyocytes
# [7] = tested on: ion channels in human atrial cardiomyocytes; conditions: sulcardine and its salts, in vitro, reported; cited from earlier work
# post-MI conscious canine = conditions: sulcardine and salts; cited from earlier work
# rabbit ventricular wedge = conditions: sulcardine and salts; cited from earlier work
# post-MI canine = conditions: sulcardine and salts; cited from earlier work
# T2 sequence (Q8WNY2 whole entry): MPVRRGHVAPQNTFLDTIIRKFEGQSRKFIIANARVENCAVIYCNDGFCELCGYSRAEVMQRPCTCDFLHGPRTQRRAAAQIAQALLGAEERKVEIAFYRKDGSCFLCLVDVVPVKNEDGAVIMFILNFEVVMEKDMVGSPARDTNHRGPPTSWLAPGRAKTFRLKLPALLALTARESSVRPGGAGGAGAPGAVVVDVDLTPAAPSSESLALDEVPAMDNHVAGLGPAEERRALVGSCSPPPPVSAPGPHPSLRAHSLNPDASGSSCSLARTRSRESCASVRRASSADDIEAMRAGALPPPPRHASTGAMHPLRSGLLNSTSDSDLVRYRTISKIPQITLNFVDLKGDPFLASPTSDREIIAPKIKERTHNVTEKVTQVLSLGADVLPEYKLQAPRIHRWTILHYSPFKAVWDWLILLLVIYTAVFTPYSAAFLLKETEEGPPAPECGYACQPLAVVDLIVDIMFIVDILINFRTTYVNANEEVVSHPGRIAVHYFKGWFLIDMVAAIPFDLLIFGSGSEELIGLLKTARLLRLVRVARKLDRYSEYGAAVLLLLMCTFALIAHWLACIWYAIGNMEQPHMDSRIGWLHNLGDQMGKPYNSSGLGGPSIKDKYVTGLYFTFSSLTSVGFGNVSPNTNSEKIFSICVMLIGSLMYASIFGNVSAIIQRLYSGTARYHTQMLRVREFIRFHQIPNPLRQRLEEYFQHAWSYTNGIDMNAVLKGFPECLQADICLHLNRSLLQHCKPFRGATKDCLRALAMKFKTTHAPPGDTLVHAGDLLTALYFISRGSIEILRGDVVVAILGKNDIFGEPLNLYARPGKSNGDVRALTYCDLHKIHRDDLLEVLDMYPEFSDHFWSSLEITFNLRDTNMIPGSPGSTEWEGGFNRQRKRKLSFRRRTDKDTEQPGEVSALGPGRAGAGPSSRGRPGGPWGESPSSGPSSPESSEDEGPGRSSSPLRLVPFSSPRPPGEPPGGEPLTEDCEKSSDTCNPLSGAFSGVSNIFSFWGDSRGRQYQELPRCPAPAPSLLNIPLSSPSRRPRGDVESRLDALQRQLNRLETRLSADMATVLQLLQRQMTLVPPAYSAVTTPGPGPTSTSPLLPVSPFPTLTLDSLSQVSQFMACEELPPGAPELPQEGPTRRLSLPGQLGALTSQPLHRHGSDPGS
# T5 sequence (Q12809 whole entry): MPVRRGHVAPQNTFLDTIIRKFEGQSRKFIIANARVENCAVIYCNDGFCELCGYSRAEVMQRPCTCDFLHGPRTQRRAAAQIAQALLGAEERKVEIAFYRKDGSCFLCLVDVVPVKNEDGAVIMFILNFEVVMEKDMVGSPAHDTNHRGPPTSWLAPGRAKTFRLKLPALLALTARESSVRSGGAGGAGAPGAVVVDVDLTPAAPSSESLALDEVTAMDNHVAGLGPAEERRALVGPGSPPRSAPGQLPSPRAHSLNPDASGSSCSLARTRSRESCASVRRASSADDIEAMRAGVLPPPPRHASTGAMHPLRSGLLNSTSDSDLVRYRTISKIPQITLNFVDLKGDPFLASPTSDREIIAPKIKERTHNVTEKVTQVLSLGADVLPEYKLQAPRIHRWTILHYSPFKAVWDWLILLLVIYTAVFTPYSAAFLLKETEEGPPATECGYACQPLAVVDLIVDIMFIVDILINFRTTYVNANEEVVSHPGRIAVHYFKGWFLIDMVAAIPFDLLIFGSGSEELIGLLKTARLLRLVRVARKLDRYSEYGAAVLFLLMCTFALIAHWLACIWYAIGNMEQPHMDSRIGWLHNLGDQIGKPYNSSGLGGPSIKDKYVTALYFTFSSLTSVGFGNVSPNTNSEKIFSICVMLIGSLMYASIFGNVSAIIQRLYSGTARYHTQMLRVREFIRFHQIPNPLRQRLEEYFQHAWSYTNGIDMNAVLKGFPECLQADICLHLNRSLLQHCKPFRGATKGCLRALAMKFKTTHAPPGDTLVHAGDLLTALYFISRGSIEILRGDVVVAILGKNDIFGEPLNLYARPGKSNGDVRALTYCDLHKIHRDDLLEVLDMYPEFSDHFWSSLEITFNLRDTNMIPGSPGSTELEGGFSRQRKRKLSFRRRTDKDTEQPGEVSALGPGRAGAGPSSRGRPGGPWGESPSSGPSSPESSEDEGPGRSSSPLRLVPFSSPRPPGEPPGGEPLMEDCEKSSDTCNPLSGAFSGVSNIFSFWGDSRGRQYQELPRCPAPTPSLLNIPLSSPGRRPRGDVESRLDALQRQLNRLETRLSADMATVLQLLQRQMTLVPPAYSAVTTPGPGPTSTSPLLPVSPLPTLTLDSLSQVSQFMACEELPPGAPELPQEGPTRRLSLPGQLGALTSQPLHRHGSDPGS
# T4 sequence (Q9UK17 whole entry): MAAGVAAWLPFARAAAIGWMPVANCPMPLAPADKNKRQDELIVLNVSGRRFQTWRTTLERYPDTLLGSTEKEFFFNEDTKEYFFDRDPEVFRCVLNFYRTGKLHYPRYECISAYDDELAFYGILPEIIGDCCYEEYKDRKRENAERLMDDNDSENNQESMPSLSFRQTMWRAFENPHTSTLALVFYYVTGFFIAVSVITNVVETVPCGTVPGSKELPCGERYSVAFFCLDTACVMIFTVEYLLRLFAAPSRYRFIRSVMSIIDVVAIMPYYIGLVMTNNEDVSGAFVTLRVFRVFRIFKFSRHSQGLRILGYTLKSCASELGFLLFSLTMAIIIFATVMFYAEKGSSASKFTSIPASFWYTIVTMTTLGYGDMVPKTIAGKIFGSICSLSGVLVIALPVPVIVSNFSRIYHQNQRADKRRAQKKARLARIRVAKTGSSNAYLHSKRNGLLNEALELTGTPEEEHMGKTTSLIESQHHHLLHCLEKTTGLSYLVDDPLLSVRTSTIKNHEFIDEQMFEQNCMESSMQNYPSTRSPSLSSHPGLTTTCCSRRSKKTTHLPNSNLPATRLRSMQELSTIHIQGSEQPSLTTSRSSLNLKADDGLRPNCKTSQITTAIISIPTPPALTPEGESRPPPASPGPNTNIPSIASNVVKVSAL
# T4 sequence (Q9NS61 whole entry partner): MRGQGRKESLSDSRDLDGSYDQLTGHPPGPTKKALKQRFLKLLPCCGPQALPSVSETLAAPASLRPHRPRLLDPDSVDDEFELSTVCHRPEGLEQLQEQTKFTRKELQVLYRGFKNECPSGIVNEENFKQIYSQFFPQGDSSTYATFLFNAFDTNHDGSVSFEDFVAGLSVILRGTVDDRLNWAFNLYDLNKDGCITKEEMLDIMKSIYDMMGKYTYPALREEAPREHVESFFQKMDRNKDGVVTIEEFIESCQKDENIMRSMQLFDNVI
# T7 sequence (P22460 whole entry): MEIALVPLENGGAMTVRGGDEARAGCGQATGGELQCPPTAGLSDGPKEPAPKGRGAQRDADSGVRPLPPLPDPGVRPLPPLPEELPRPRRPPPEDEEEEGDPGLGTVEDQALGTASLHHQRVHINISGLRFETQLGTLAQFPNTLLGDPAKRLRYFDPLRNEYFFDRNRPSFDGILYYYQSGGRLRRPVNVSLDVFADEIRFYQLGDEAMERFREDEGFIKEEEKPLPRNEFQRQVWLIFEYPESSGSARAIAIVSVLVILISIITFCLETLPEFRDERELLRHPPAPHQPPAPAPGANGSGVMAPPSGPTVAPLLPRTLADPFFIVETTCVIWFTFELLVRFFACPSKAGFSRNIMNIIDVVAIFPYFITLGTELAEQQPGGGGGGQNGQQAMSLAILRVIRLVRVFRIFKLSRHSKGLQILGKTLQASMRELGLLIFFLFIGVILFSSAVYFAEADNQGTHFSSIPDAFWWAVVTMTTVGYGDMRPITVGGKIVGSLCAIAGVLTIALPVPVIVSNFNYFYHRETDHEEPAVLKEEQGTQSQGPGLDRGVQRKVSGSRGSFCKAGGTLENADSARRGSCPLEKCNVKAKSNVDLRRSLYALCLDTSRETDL
substance,measurement,setting,value
"4-methoxy-N-(3,5-bis-(1-pyrrolidinyl)-4-hydroxy benzyl)benzene sulfonamide [sulcardine]",IC50,Fast Na [1],34 µM
same,IC50,L-Ca,54 µM
same,IC50,Ito [2],26 µM
same,IC50,IKr [3],61 µM
same,IC50,IKach,130 µM
same,IC50,Fast Na [4],26 µM
same,IC50,Ito [5],100 µM
same,IC50,IKr [6],40 µM
same,IC50,Slow Na,45 µM
same,IC50,IKur,> 190 µM
same,IC50,[7],26 to 100 µM
same,pro-arrhythmic activity,post-MI conscious canine,lack significant pro-arrhythmic activity
same,pro-arrhythmic activity,rabbit ventricular wedge,lack significant pro-arrhythmic activity
same,defibrillation threshold,post-MI canine,do not increase defibrillation threshold

# From patent publication US8541464B2, “Treatment of atrial fibrillation” (HUYA Biosciences International LLC, priority 2009, dated 2013)
